Test results published in patent publication US8476023B2, “Methods relating to aromatase inhibitor pharmacogenetics” (The Penn State Research Foundation, priority 2009, dated 2013).

Tests used:
[1] = biological target: T1, UGT1A8 (Homo sapiens, UniProt Q9HAW9); assay: Glucuronidation assay, UGT1A8-overexpressing HEK293 cell homogenate; format: in vitro ADME; conditions: up to 600 μM substrate
T1 construct: expressed in transfected cells; host or cells: HEK293
T1 sequence (Q9HAW9 26-530): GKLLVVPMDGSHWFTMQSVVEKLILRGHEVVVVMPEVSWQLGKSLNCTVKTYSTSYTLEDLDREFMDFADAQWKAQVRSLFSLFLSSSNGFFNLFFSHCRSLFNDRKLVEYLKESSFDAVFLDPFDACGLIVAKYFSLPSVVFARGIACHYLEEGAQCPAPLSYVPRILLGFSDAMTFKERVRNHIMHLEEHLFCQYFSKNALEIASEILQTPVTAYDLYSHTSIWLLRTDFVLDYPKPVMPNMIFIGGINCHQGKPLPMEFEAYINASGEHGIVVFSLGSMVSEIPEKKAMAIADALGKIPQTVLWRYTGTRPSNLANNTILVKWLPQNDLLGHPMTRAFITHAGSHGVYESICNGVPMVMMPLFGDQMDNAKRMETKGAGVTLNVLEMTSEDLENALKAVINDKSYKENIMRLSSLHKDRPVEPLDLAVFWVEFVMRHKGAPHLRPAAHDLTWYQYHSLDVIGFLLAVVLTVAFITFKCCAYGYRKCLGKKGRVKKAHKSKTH

[2] = biological target: T2, UGT1A10 (Homo sapiens, UniProt Q9HAW8); assay: Glucuronidation assay, UGT1A10-overexpressing HEK293 cell homogenate; format: in vitro ADME; conditions: UGT1A10; up to 600 μM substrate
T2 construct: expressed in transfected cells; host or cells: HEK293
T2 sequence (Q9HAW8 26-530): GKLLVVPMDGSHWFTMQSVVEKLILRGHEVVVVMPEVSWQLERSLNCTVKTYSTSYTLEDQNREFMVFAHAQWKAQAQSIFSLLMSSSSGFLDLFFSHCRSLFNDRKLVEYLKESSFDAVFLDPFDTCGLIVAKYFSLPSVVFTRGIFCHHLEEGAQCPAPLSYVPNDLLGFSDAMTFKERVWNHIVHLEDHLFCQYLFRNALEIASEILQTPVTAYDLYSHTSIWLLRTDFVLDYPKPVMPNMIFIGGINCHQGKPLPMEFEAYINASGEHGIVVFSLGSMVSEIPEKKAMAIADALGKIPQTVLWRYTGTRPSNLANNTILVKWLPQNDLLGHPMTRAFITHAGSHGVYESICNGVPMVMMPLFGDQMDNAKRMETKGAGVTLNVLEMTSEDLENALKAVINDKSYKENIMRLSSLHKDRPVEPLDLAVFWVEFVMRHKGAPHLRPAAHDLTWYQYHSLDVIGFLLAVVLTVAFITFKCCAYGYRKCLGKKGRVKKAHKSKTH

[3] = biological target: T3, UGT2B17 (Homo sapiens, UniProt O75795); assay: Glucuronidation assay, UGT2B17-overexpressing HEK293 cell homogenate; format: in vitro ADME; conditions: UGT2B17; up to 600 μM substrate
T3 construct: expressed in transfected cells; host or cells: HEK293
T3 sequence (O75795 24-530): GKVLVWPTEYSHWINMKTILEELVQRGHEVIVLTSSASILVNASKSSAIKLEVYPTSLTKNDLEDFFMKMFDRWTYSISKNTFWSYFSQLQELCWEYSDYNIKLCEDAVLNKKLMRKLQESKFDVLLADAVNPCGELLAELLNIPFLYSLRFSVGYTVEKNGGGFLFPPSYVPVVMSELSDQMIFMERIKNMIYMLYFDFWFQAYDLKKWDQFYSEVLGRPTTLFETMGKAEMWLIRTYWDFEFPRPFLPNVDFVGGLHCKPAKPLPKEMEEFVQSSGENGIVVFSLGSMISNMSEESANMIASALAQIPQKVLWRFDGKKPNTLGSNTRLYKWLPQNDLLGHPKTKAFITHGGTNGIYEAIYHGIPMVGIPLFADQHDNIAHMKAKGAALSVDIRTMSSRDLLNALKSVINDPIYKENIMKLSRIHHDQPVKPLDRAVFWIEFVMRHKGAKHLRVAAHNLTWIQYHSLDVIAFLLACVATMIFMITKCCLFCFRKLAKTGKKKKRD

[4] = biological target: T4, UGT1A4^24Pro/48Leu (Homo sapiens, UniProt P22310); assay: Glucuronidation assay, UGT1A4 24Pro/48Leu-overexpressing HEK293 cell homogenate; format: in vitro ADME; conditions: UGT 1A4 as worded in text; up to 600 μM substrate
T4 construct: expressed in transfected cells; host or cells: HEK293
T4 sequence (P22310 29-534): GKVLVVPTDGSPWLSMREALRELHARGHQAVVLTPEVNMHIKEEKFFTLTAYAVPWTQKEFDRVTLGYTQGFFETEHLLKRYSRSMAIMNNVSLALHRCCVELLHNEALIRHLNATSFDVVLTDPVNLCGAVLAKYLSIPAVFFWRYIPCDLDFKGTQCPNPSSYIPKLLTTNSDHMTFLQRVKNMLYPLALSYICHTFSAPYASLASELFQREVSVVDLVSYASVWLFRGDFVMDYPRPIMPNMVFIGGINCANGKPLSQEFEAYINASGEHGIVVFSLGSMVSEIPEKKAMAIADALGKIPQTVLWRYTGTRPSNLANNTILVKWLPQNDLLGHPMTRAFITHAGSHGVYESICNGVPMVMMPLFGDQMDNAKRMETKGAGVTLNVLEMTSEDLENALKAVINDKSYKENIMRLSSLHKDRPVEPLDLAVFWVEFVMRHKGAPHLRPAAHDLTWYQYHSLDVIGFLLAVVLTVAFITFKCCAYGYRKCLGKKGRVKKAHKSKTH

[5] = test system: UGT1A4 24Thr/48Leu; assay: Glucuronidation assay, UGT1A4 24Thr/48Leu-overexpressing HEK293 cell homogenate; format: in vitro ADME, human; conditions: human, pH 7.4
[6] = test system: UGT1A4^24Thr/48Leu; assay: as above; format: in vitro ADME, human; conditions: normalized per μg UGT protein by Western blot
[7] = Kinetic analysis of glucuronidation by individual HLM from UGT2B17 (*1/*1) subjects; format: in vitro ADME, human; conditions: human, liver microsomes of UGT2B17 (*1/*1) subjects
[8] = test system: human liver microsomes (HLM), UGT2B17 (*1/*1) genotype; assay: as above; format: in vitro ADME; conditions: per mg HLM protein
[9] = Kinetic analysis of glucuronidation by individual HLM from UGT2B17 (*2/*2) subjects; format: in vitro ADME, human; conditions: human, liver microsomes of UGT2B17 (*2/*2) subjects
[10] = test system: human liver microsomes (HLM), UGT2B17 (*2/*2) genotype; assay: as above; format: in vitro ADME; conditions: per mg HLM protein
[11] = test system: human liver microsomes (HLM); assay: Rate of exemestane-17-O-glucuronide formation in a series of 110 HLM by UGT2B17 genotype; format: in vitro ADME; conditions: 9.4 μM 17-dihydroexemestane, p<0.001
[12] = test system: UGTs 1A1, 1A3, 1A6, 1A7, 1A9, 2B4, 2B7, 2B10, 2B11, 2B15; assay: Screening of the other UGT-overexpressing HEK293 cell homogenates for glucuronidation activity; format: in vitro ADME, human; conditions: other UGTs screened; up to 1 mg of UGT overexpressing cell homogenate

With `C=C1C[C@@H]2[C@H](CC[C@]3(C)C(O)CC[C@@H]23)[C@@]2(C)C=CC(=O)C=C12` (stereo partly shown) [17-dihydroexemestane] the “glucuronidation activity in UGT screen” value [1] was “detectable activity”, the “glucuronidation activity in UGT screen” value [2] was “detectable activity” and the “glucuronidation activity in UGT screen” value [3] was “detectable activity”. For the same compound, the “glucuronidation activity in UGT screen” value [4] was “detectable activity”, the Km at 60 min [5] was 28 ± 7.8 µM and the Vmax [6] was 0.26 ± 0.04 pmol · min^−1 · μg UGT protein^−1. It also gave a Km at 60 min ([7]; pH 7.4, HLM # 972, UGT2B17 (*1/*1), read-out: KM) of 10.6 µM, a Km at 60 min ([7]; pH 7.4, HLM # 1183, UGT2B17 (*1/*1), read-out: KM) of 7.2 µM and a Km at 60 min ([7]; pH 7.4, HLM # 1392, UGT2B17 (*1/*1), read-out: KM) of 7.1 µM. The Km at 60 min ([7]; pH 7.4, HLM # 2412, UGT2B17 (*1/*1), read-out: KM) was 6.7 µM, the Km at 60 min ([7]; pH 7.4, mean of five UGT2B17 (*1/*1) HLM, read-out: KM, mean ± S.D.) was 7.3 ± 2 µM and the Vmax ([8]; HLM # 972, UGT2B17 (*1/*1)) was 51.6 pmol/min/mg. It also gave a Vmax ([8]; HLM # 1183, UGT2B17 (*1/*1)) of 322 pmol/min/mg, a Vmax ([8]; HLM # 1392, UGT2B17 (*1/*1)) of 393 pmol/min/mg and a Vmax ([8]; HLM # 2167, UGT2B17 (*1/*1)) of 38.9 pmol/min/mg. The Vmax ([8]; HLM # 2412, UGT2B17 (*1/*1)) was 213 pmol/min/mg, the “Vmax, mean ± S.D.” value ([8]; mean of five UGT2B17 (*1/*1) HLM) was 204 ± 158 pmol/min/mg and the Km at 60 min ([9]; pH 7.4, HLM # 383, UGT2B17 (*2/*2), read-out: KM) was 9.3 µM. The Km at 60 min ([9]; pH 7.4, HLM # 416, UGT2B17 (*2/*2), read-out: KM) was 17 µM, the Km at 60 min ([9]; pH 7.4, HLM # 2174, UGT2B17 (*2/*2), read-out: KM) was 12.4 µM and the Km at 60 min ([9]; pH 7.4, HLM # 2175, UGT2B17 (*2/*2), read-out: KM) was 13 µM. For the same compound, the Km at 60 min ([9]; pH 7.4, HLM # 3873, UGT2B17 (*2/*2), read-out: KM) was 11 µM, the Km at 60 min ([9]; pH 7.4, mean of five UGT2B17 (*2/*2) HLM, read-out: KM, mean ± S.D.) was 12.8 ± 3 µM and the Vmax ([10]; HLM # 383, UGT2B17 (*2/*2)) was 17.0 pmol/min/mg. It also gave a Vmax ([10]; HLM # 416, UGT2B17 (*2/*2)) of 5.6 pmol/min/mg, a Vmax ([10]; HLM # 2174, UGT2B17 (*2/*2)) of 13.0 pmol/min/mg and a Vmax ([10]; HLM # 2175, UGT2B17 (*2/*2)) of 2.3 pmol/min/mg. For the same compound, the Vmax ([10]; HLM # 3873, UGT2B17 (*2/*2)) was 8.1 pmol/min/mg, the “Vmax, mean ± S.D.” value ([10]; mean of five UGT2B17 (*2/*2) HLM) was 9.2 ± 5.9 pmol/min/mg and the “decrease in glucuronidation activity in HLM (*2/*2) compared with HLM (*1/*1)” value [11] was 14 fold. For the same compound, the “glucuronidation activity in UGT screen” value [12] was “None of the other UGTs screened in assays described herein exhibited any glucuronidation activity”.
